For 88 compounds, melting point results are on record in a melting point compilation (Tetko et al.; mined from patent text by program, amines drawn as free bases though some values may be those of a salt).

With `C=CCOCc1ccc(-c2ncccc2S(=O)(=O)Nc2ncc(C)nc2OC)cc1`, the melting point is 72 to 76 °C. Under `O=C1CCc2cc(Cl)c(Cl)cc21` stands 155 °C; under `CCCCCCCCC1C=CC(/C=C/c2ccc(C(=O)O)o2)=C2N=C3CCCC(C)(C)C3=C21` (stereo not drawn), 115 to 117 °C. Then `O=C(O)Cc1ccc(-c2ccccc2F)c(F)c1`, with 126 to 127 °C; and `CCOC(=O)c1cnc(Oc2cc(OCCOC)ccc2CCCOC(=O)NCC2CC2)c(Cl)c1`, with 94.6 to 94.8 °C; and `COc1ccc2[nH]c(S(=O)Cc3ncc(C)c(N4CCCCC4)c3Cl)nc2c1` (stereo not drawn), with 151 to 152 °C.

As for `CCc1nc(/C=C\c2cn(-c3ccccc3)nc2OCc2ccc(OCc3nc(-c4cccc(C(=O)OC)c4)oc3C)c(OC)c2)cs1`, the melting point was 125 to 126 °C. `CN(C(=O)OC(C)(C)C)c1ccc(-c2ncn(-c3ccc(OC(F)(F)F)cc3)n2)cc1` gave a melting point of 125 to 128 °C.

Turning to `COC(=O)c1ccc(C(F)(F)F)nc1S(N)(=O)=O`, the melting point was 187 to 188 °C. The compound `CCN(C(C)=O)c1ccc(OC23CCC(CC2)CC3)cc1` had a melting point of 99 to 101 °C.

Consider `Clc1ccccc1-c1ccc(-c2ccc(C3=CC=CNC3)cc2)n1CNc1ccccn1`, for which the melting point was 163 to 166 °C. Under `Cn1c(=O)c(=O)[nH]c2cc([N+](=O)[O-])ccc21` stands 356 °C; under `COc1ccc(-c2ccc3c(c2)c(C)c(-c2ccccc2)n3Cc2ccccc2)cc1`, 117 to 122 °C. Then `Cn1nc(-c2ccc(S(C)(=O)=O)cc2Cl)c2c1CCCC2=O`, with 208 °C; and `O=C(O)C1OC(c2ccccc2)=NN1C(=O)CCS` (stereo not drawn), with 106 to 109 °C; and `COC(=O)COc1ccc(C(=O)CCCl)cc1`, with 89 to 90 °C.

Regarding `O=C(O)c1cnn(CCCCN2CCN(C(c3ccccc3)c3ccccc3)CC2)c1`, the melting point was 70 to 74 °C. Compound `CCN(CC)c1ccc(-c2cc(-c3ccc(C(=O)O)cc3)ccc2OCCO)cc1C(C)(C)C` had a melting point of 216 °C. `CS(=O)(=O)c1ccc(C(=O)Nc2ccc(Cl)c(-c3ccc(OCCCCCCC(=O)NO)cn3)c2)c(Cl)c1`: the melting point was in the range of 140 to 145 °C. Take `CCC(NS(=O)(=O)c1ccc(Cl)cc1)P(=O)(Oc1ccccc1)Oc1ccccc1` (stereo not drawn): the melting point lay in the range of 136 to 138 °C. In turn, `CC(C)(C)OC(=O)C=Cc1ccc(O)cc1C=NO` registered a melting point of 146 to 149 °C. The compound `O=S(=O)(NCCCOc1cccc2nccn12)c1ccccc1` yielded a melting point of 155 to 156 °C. As to `O=C(O)CCCCCNC(=O)C(F)(F)F`, the melting point fell in the range of 90 to 91 °C. For the compound `Cc1oc(-c2ccccc2)nc1COc1ccc(Sc2nc(-c3ccccc3)c(CCC(=O)O)s2)cc1`, the melting point was in the range of 121 to 122 °C. `NC1=C(c2ccc(O)cc2)C(=O)c2ccc(O)cc21`: the melting point was 213 °C. `COc1ccc(-c2ccc3c(c2)c2c(Cl)ccnc2n3S(=O)(=O)c2ccccc2)cc1` yielded a melting point of 209 to 211 °C. Then `CC1CCN(CC#CCN2C(=O)c3cccc4c3N(CC4)c3ccc(Br)cc32)CC1`, with 154 to 155 °C.

`CCOC(=O)C1(N2C(=O)c3cccc(F)c3C2=O)CC1`: the melting point came to 164 °C. Under `COC(=O)c1ccc(C2C(=O)Oc3c2cc(C(C)(C)C)cc3C(C)(C)C)cc1` (stereo not drawn) stands 135 to 136 °C. `Nc1nc(N)nc(C2(c3ccccc3)CCCCC2)n1` showed a melting point of 153 to 155 °C. The compound `O=C(Nc1ccccn1)c1sc(Nc2ccccc2)c2c1CCc1cnoc1-2` returned a melting point of 196 to 197 °C. In the case of `CC(=O)N1CCN=C1C(O)(c1ccccc1)c1ccccn1` (stereo not drawn), the melting point fell in the range of 150 to 153 °C. `COC(=O)c1cccc(C(=O)c2cc(C(=O)OC)cc(OC)c2OC)c1`: the melting point lay in the range of 160 to 161 °C. Turning to `CN1[C@@H](c2cccc(I)c2)c2ccccc2S1(=O)=O`, the melting point was 156 °C. `O=CNNc1ccc(NC(=S)N2CCCC2)cc1` returned a melting point of 199 to 201 °C. `CCOC(=O)C(C)Oc1ccc(C(=O)Nc2ccccc2Sc2ccccc2-c2nnn[nH]2)cc1` (stereo not drawn) displayed a melting point of 157 to 158 °C.

The compound `CN(C)CC(O)C1=CC2(CCCC2)c2ccccc21` (stereo not drawn) showed a melting point of 133 to 134 °C. Compound `COc1ccc(-c2cc(-c3ccccc3)[nH]c2C(=O)NCc2ccc(C(=O)NCCS)cc2)cc1` gave a melting point of 131 to 132 °C. Regarding `CC1(C)C(C=CC(=O)Oc2ccccc2)C1C(=O)O` (stereo not drawn), the melting point was 57 °C. As for `CC(=O)NCCCn1nnnc1S`, the melting point lay within 152 to 154 °C.

Compound `COc1ccc2c(c1)C(=O)C(=Cc1ccccc1)C2` had a melting point of 131 to 133 °C. Consider `Oc1cc(-c2c(-c3ccccc3)nn3ccccc23)n[nH]1`, for which the melting point was > 300 °C. `Cc1ccc(C(=O)C2=C(O)C(=O)N(c3ccc(C)nn3)C2c2ccc(OC(F)(F)F)cc2)cc1` (stereo not drawn) registered a melting point of 215 °C. Consider `Cc1ccc2nc(SCCN(C(C)C)C(C)C)[nH]c2c1`, for which the melting point lay in the range of 109 to 110 °C. Compound `Cc1ccccc1P1(=O)c2ccccc2CN1c1ccccc1` (stereo not drawn) showed a melting point of 181 to 183 °C.

Turning to `Cc1ccccc1-c1ccc(Cl)cc1C#N`, the melting point is 62 to 65 °C.

`COC(=O)CN1C(=O)CN=C(c2ccccc2Cl)c2cc(Cl)ccc21` registered a melting point of 193 to 194 °C. With `Cc1c(C)c2c(c(C)c1O)C(=O)CC(C)(COc1ccc([N+](=O)[O-])cc1)O2` (stereo not drawn), the melting point lay in the range of 199 to 204 °C. In turn, `CCN(C1CC(C)(C)Oc2ccc(OCCCCC(=O)NCCO)cc21)S(C)(=O)=O` (stereo not drawn) registered a melting point of 88 to 90 °C. Compound `CN1CCCC1=NC(=O)Nc1ccc(F)cc1` returned a melting point of 113 to 115 °C. `Cc1cccc(SCc2c(C(C)C)nc(C(C)C)c(CO)c2-c2ccc(F)cc2)c1` displayed a melting point of 92 to 93 °C. On to `CCOC(=O)c1c[nH]c2c1-c1ncccc1CCC2`, for which the melting point lay in the range of 96 to 98 °C. For `Cc1cc(SCc2sc(-c3ccc(F)cc3)nc2C)ccc1OCC(=O)O`, the melting point was 45 to 46 °C. In turn, `CCOC(=O)Cn1c2c([nH]c(=O)c1=O)CCC1=C2C=C(n2ccc(C(=O)NCc3ccc([N+](=O)[O-])cc3)c2)CC1` showed a melting point of 165 °C. Then `C[C@@H]1CCC[C@H](C)N1CCNC(=O)CN1CCCC1=O`, with 93 to 94.5 °C; and `CC(=O)ON1C(C)(C)CC(OC(=O)c2cccc(C(=O)OC3CC(C)(C)N(OC(C)=O)C(C)(C)C3)c2)CC1(C)C`, with 98 to 101 °C. Under `CCCc1nc2c(N)nc3ccccc3c2n1CCCCN(OC)C(N)=O` stands 179 to 181 °C; under `CC(C)OC(=O)NCc1cccc(-c2ccccc2)c1`, 61 to 64 °C; under `O=C(O)[C@@H]1CCc2ccccc2N1C(=O)OCc1ccccc1`, 75 to 79 °C. Under `CC(C)(C)OC(=O)NC(CSCc1ccc(-c2ccc(-c3ccc4c(c3)OCO4)cc2)cc1)C(=O)O` (stereo not drawn) stands 178 to 180 °C; under `CCCCCNC(=O)Nc1ccccc1C(=O)NC1CCN(C(c2ccccc2)c2ccccc2)CC1`, 199 to 201 °C; under `N#Cc1cnc2c(sc3ccccc32)c1Nc1ccc(Oc2ccccc2)cc1`, 230 to 233 °C. The compound `O=P1(c2cccc(C(F)(F)F)c2)c2ccccc2CN1c1ccccc1` (stereo not drawn) returned a melting point of 48 to 51 °C. Compound `N#Cc1c(N)nc2ccc([N+](=O)[O-])cc2c1NCc1cccs1` yielded a melting point of 277 to 280 °C.

As for `CS(=O)(=O)c1cccc(NC(=O)c2cnn3ccc(-c4ccc(Cl)cc4)nc23)c1`, the melting point was in the range of 258 to 260 °C.

In turn, `O=C(Nc1cccc2c(CCO)c(Br)cnc12)c1c(Cl)cccc1Cl` showed a melting point of 199 to 200 °C. Consider `COc1cc2nc(N3CCN(C(=O)C=Cc4ccc(C(C)C)cc4)CC3)nc(N)c2cc1OC`, for which the melting point was 237 to 238 °C.

The compound `CNC(=C[N+](=O)[O-])NCCSCc1csc(CN2CCCC2)n1` yielded a melting point of 119 to 120 °C. `COC(=O)c1c2cc(I)ccc2nc2ccc(I)cc12` registered a melting point of 201 to 203 °C.

For `FC(F)(F)c1ccc(-c2cnn(-c3cccnc3)c2)cn1`, the melting point lay within 203 to 204 °C. `Cc1cc(N)ccc1C(O)c1ccccn1` (stereo not drawn) registered a melting point of 102 to 104 °C. `C=CCN(CC=C)Cc1nc(-c2ncn3c2[C@@H]2CCN2C(=O)c2c(Cl)cccc2-3)no1` displayed a melting point of 165 to 170 °C. `O=Cc1cc(O)c(O)c(C=O)c1CCC(=O)O` yielded a melting point of 160 to 162 °C.

Turning to `CCOC(=O)OC1C(=O)N(CCN(C)C)c2ccc3ccccc3c2SC1c1ccc(OC)cc1` (stereo not drawn), the melting point was 168 to 169 °C. The compound `O=[N+]([O-])c1ccc(Oc2cccc3c(Oc4ccc([N+](=O)[O-])c(O)c4)cccc23)cc1O` showed a melting point of 238 to 241 °C.

Consider `CC(Cl)(Cl)C(NC(=O)c1ccc(F)cc1)NC(=NC#N)Nc1ccc(Cl)nc1` (stereo not drawn), for which the melting point fell in the range of 197 to 198 °C. Turning to `CC(C)(O)c1nnc(-c2ccc3occ(-c4cc(F)ccc4F)c3c2)o1`, the melting point fell in the range of 155 to 156 °C. As for `NC(=O)[C@@H]1C[C@H](S)CN1C(=O)OCc1ccc([N+](=O)[O-])cc1`, the melting point was 158 to 162 °C. Then `Cc1cc(C)nc(N(CCN(C)C)C(N)=O)c1`, with 88 to 89 °C; and `COC(=O)C1C=CCn2c(=O)n(CO)c(=O)n21` (stereo not drawn), with 123 to 125 °C.

In the case of `O=C1CC[C@@H]([N+](=O)[O-])[C@H](c2ccc(Cl)cc2)N1` (relative stereo), the melting point is 148 to 150 °C. In turn, `CC1(C)CCC(C)(C)c2cc(C(=O)Nc3ccc(I)cc3)ccc21` yielded a melting point of 224 °C.

Take `COC(=O)c1c(OC)ccc(N)c1OC`: the melting point is 78 to 80 °C. On to `CCOC(=O)C(=O)c1cc(Cl)c(C)cc1F`, for which the melting point is 84 to 85 °C. Then `CC(=O)Nc1ccc2c(c1)[nH]c(=O)c(=O)n2C`, with 390 °C; and `CCCCCCCOc1ccc(C2CCC(=O)O2)cc1` (single isomer, unassigned), with 44 °C. Then `CCCN(CCC)Cc1cnc(-c2ncn3c2CN(C)C(=O)c2c-3ccc(F)c2Cl)o1`, with 110 to 112 °C. Then `ClC(Cl)(Cl)c1nc(-c2ccccc2-c2ccc(CBr)cc2)no1`, with 77 to 79 °C.

The melting point is the temperature of the solid-liquid transition.
